Reference: patent US20050020854A1, “Alkyl(en)ylglycerinether carboxylic acids” (priority 2001, published 2005)
Read-outs that look alike come from different tables or passages of the source.

System: mucous membrane (HET-CAM)
Assay: Mucous membrane compatibility, in vitro HET-CAM test, reaction time method
Description: Mucous membrane compatibility was evaluated by the in vitro HET-CAM test using the reaction time method (conc. 5% in 2×-distilled water, pH=6).

[1] = conc. 5% in 2×-distilled water, pH=6

Substance | Evaluation | Irritation value Q | Evaluation [1] | Irritation value Q [1]
Sodium Laureth Sulfate [Texapon ASV] | Moderately | 1.0 | – | –
mono-C12-glycerol ether carboxylic acid [Example 1] | – | – | Slightly irritating | 0.76
mono-C12-glycerol ether+4EO ether carboxylic acid [Example 2] | – | 0.00 | – | –
